Measured values as given in the supplement of paper PMC12317010.
Counter-ions that a name gives are not always drawn.

Experiment: collision cross section in nitrogen (drift tube, single-field); higher = larger gas-phase ion size
[1] = ion type: [M+H], ion source: APCI, ion mode: Positive
[2] = ion type: [M+H], ion source: ESI, ion mode: Positive
[3] = ion type: [M-H], ion source: ESI, ion mode: Negative
[4] = ion type: [M+Na], ion source: ESI, ion mode: Positive
[5] = ion type: [M+], ion source: APCI, ion mode: Positive
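Also: chemical standards at 10 µM analysed by drift tube IMS-QTOF MS in about 3.95 torr nitrogen, mean of duplicate injections differing ≤1%, mass error below 10 ppm.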

| Structure (SMILES) | collision cross section in nitrogen [1] | collision cross section in nitrogen [2] | collision cross section in nitrogen [3] | collision cross section in nitrogen [4] | also measured |
| --- | --- | --- | --- | --- | --- |
| Cc1ccc(-c2nc3ccccc3o2)cc1 [2-(4-Methylphenyl)-1,3-benzoxazole] | 145.3 Å² | 145.5 Å² | – | – | – |
| CCCCCCCCCCCCCCCC(=O)OC [Methyl hexadecanoate] | – | – | 173.6 Å² | – | – |
| CCCCCCc1ccc(N)cc1 [4-Hexylaniline] | 162.8 Å² | 162.8 Å² | – | – | – |
| CCN(CC)C(=S)SSC(=S)N(CC)CC [Tetraethylthiuram disulfide] | – | – | – | 173.2 Å² | – |
| CNC(=O)ON=CC(C)(C)SC [Aldicarb] | – | – | – | 147.5 Å² | – |
| Cc1ccc(-c2ccccc2)cc1 [4-Phenyltoluene] | – | – | – | 135.4 Å² | – |
| O=P1(N(CCCl)CCCl)NCCCO1 (centres undefined) [Cyclophosphamide monohydrate] | 148 Å² | 147.6 Å² | – | 154.6 Å² | – |
| CCCCOCCOCCOC(C)=O [Diethylene glycol monobutyl ether acetate] | – | – | – | 150.1 Å² | – |
| O=C1NS(=O)(=O)c2ccccc21 [Calcium saccharin hydrate] | – | – | 130.5 Å² | – | – |
| O=[N+]([O-])c1ccc(O)cc1C(F)(F)F [3-(Trifluoromethyl)-4-nitrophenol] | – | – | 128.7 Å² | – | – |
| COC(=O)[C@H]1[C@H]2C[C@@H]3c4[nH]c5cc(OC)ccc5c4CCN3C[C@H]2C[C@@H](OC(=O)c2cc(OC)c(OC)c(OC)c2)[C@@H]1OC [Reserpine] | – | – | – | – | collision cross section in nitrogen [5]: 242.8 Å² |
| c1ccc2c(c1)ccc1ncccc12 [Benzo(f)quinoline] | 134.7 Å² | 134.8 Å² | – | – | collision cross section in nitrogen [5]: 130.3 Å² |
| Cc1cc(=O)oc2cc(O)ccc12 [4-Methylumbelliferone hydrate] | – | 133 Å² | 133.7 Å² | – | – |
| CC(CCl)OP(=O)(OC(C)CCl)OC(C)CCl (centres undefined) [Tris(2-chloroisopropyl)phosphate] | – | – | – | 171.9 Å² | – |
| CCOC(=O)Cc1ccccc1 [Benzeneacetic acid, ethyl ester] | – | – | 144.3 Å² | – | – |
| OC(c1ccc(F)cc1)(c1cncnc1)c1ccccc1Cl (centres undefined) [Nuarimol] | 171.6 Å² | 171.2 Å² | 170.7 Å² | – | – |
| CC1=NNC(=O)N(/N=C/c2cccnc2)C1 [Pymetrozine] | 154.8 Å² | 154.2 Å² | – | 155.8 Å² | – |
| Cc1cccc(O)c1C [2,3-Dimethylphenol] | – | – | 126.6 Å² | – | – |
| Nc1ccc(Oc2ccc(N)cc2)cc1 [4,4'-Oxydianiline] | 167.4 Å² | 160.7 Å² | – | – | collision cross section in nitrogen [5]: 146.6 Å² |
| FC(F)(F)c1ccc(Cl)cc1 [1-Chloro-4-(trifluoromethyl)benzene] | – | 142.6 Å² | – | – | – |
| CC(C)CCCCCCOC(=O)CCCCC(=O)OCCCCCCC(C)C [Diisononyl adipate] | – | – | – | 219.4 Å² | – |

| Structure (SMILES) | collision cross section in nitrogen [1] | collision cross section in nitrogen [2] | collision cross section in nitrogen [3] | collision cross section in nitrogen [4] | also measured |
| --- | --- | --- | --- | --- | --- |
| O=C(O)c1ccccc1C(=O)OC1CCCCC1 [Monocyclohexyl phthalate] | – | – | 159.9 Å² | 171.7 Å² | – |
| COc1cccc2c1C(=O)c1c(O)c3c(c(O)c1C2=O)C[C@@](O)(C(=O)CO)C[C@@H]3O[C@H]1C[C@H](N)[C@H](O)[C@H](C)O1 [Doxorubicin hydrochloride] | 230.5 Å² | 230 Å² | 223.1 Å² | 232.8 Å² | – |
| Cc1oc2c(NC(=O)c3c(Cl)cccc3Cl)cccc2c1C(C)(C)O | – | 186.3 Å² | 191.5 Å² | 190.9 Å² | – |
| COc1ccc(NC(=O)CC(C)=O)cc1 [N-(4-Methoxyphenyl)-3-oxobutanamide] | 146.5 Å² | – | 148.5 Å² | 160.2 Å² | – |
| CCCCC[C@H](O)CC(=O)CCc1ccc(O)c(OC)c1 [(6)-Gingerol] | – | – | 169.5 Å² | 180.3 Å² | – |
| CC(C)C1CCC(Cc2ccc(Cl)cc2)C1(O)Cn1cncn1 (centres undefined) [Ipconazole] | 173.8 Å² | 173.8 Å² | – | 179.6 Å² | – |
| CC1(C)CC(N)CC(C)(C)N1 [2,2,6,6-Tetramethylpiperidin-4-amine] | 133.5 Å² | 135.1 Å² | – | – | – |
| COCC(C)N(C(=O)CCl)c1c(C)csc1C (centres undefined) [Dimethenamid] | 155.2 Å² | 155.9 Å² | – | 167.9 Å² | – |
| N#CC(CCc1ccc(Cl)cc1)(Cn1cncn1)c1ccccc1 (centres undefined) | 183.9 Å² | 183.1 Å² | – | – | – |
| COc1ccc(NC(C)=O)cc1N [3'-Amino-4'-methoxyacetanilide] | 137.3 Å² | 137.2 Å² | – | – | – |
| CCCN(CC)CC1COC2(CCC(C(C)(C)C)CC2)O1 (centres undefined) [Spiroxamine] | – | 176.6 Å² | – | – | – |
| CCN(CC)C(=O)c1cccc(C)c1 [DEET] | 143.5 Å² | 143.6 Å² | – | 160.2 Å² | – |
| Cc1ccc(S(=O)(=O)O)cc1 [Sodium 4-methylbenzenesulfonate] | – | – | 135.2 Å² | – | – |
| Clc1cccc(Cl)c1NC1=NCCN1 [Clonidine hydrochloride] | 147.1 Å² | 146.5 Å² | 145.8 Å² | – | – |
| CCCCCCC(C)Nc1ccc(Nc2ccccc2)cc1 (centres undefined) [N-(1-Methylheptyl)-N'-phenyl-1,4-benzenediamine] | – | – | – | 190 Å² | – |
| CCCC[n+]1ccccc1 [N-Butylpyridinium chloride] | – | – | – | – | collision cross section in nitrogen (ion source: ESI, ion mode: Positive, ion type: [M]+ (permanent cation)): 127.7 Å² |
| Nc1nnc(-c2ccc([N+](=O)[O-])o2)o1 [2-Amino-5-(5-nitro-2-furyl)-1,3,4-oxadiazole] | – | – | 135.3 Å² | – | – |
| CC1CCc2nccnc21 (centres undefined) [6,7-Dihydro-5-methyl-5H-cyclopentapyrazine] | 127.6 Å² | – | – | – | – |
| O=C1NS(=O)(=O)c2ccccc21 [Saccharin] | – | – | 131.1 Å² | – | – |
| CC(c1ccccc1)(c1ccc(O)cc1)c1ccc(O)cc1 [4,4'-(1-Phenylethylidene)bisphenol] | – | – | 180 Å² | – | – |
| Cc1cnc(NC(=O)C2=C(O)c3ccccc3S(=O)(=O)N2C)s1 [Meloxicam] | 179.2 Å² | 178.5 Å² | 177.7 Å² | 184.2 Å² | – |

| Structure (SMILES) | collision cross section in nitrogen [1] | collision cross section in nitrogen [2] | collision cross section in nitrogen [3] | collision cross section in nitrogen [4] | also measured |
| --- | --- | --- | --- | --- | --- |
| Cn1c(=S)[nH]c2ccccc21 [1-Methyl-1,3-dihydro-2H-benzimidazole-2-thione] | 130.7 Å² | 130.9 Å² | 131.4 Å² | – | collision cross section in nitrogen [5]: 127.9 Å² |
| O=c1c(O)c(-c2ccc(O)cc2)oc2cc(O)cc(O)c12 [Kaempferol] | 163.2 Å² | 162.8 Å² | 162.2 Å² | – | – |
| CCOC(=O)NCCC[Si](OCC)(OCC)OCC [Ethyl [3-(triethoxysilyl)propyl]carbamate] | – | – | – | 171.4 Å² | – |
| Nc1cccnc1 [3-Pyridinamine] | 115 Å² | 115.2 Å² | – | – | – |
| CC(=O)c1ccc(O)cc1Br [1-(2-Bromo-4-hydroxyphenyl)ethanone] | – | – | 130.1 Å² | – | – |
| CC(C)c1ccc2ncccc2c1 [6-(1-Methylethyl)quinoline] | 138 Å² | 138.5 Å² | – | – | – |
| Nc1ccccc1[N+](=O)[O-] [2-Nitrobenzenamine] | – | – | 121.6 Å² | – | – |
| CCCCCCCCCCO[C@@H]1O[C@H](CO)[C@@H](O)[C@H](O)[C@H]1O [Decyl beta-D-glucopyranoside] | – | – | 192.6 Å² | 187.7 Å² | – |
| COc1cc(C(=O)NC2CCN(C)CC2)ccc1Nc1ncc2c(n1)N(C1CCCC1)CC(F)(F)C(=O)N2C [Ro 3280] | 250.9 Å² | 250.7 Å² | 236.7 Å² | 262.3 Å² | – |
| CCCCCCCCc1ccc(O)cc1 [4-Octylphenol] | – | – | 159.9 Å² | – | – |
| CC(C)(C)c1n[nH]c(=S)n(N)c1=O | – | – | 142.1 Å² | – | – |
| COCc1nnc(-c2ccc[n+]([O-])c2)n1-c1c(Cl)c(Cl)cc2[nH]c(=O)c(=O)[nH]c12 | – | 193.1 Å² | 190.9 Å² | 193.2 Å² | – |
| CCCCCCOC(=O)CC(CC(=O)OCCCCCC)(OC(=O)CCC)C(=O)OCCCCCC [Butyryl-n-trihexylcitrate] | – | – | – | 245.5 Å² | – |
| Nc1ncnc2[nH]cnc12 [Adenine] | 124.4 Å² | 125.2 Å² | 120.9 Å² | – | – |
| OCc1ncccc1O [3-Hydroxy-2-(hydroxymethyl)pyridine hydrochloride] | 121.7 Å² | 122.1 Å² | 119.9 Å² | – | – |
| CN(C)c1nc(=O)n(C2CCCCC2)c(=O)n1C [Hexazinone] | 163 Å² | 162.8 Å² | – | 176.3 Å² | – |
| Oc1cc2ccccc2c2ccccc12 [9-Phenanthrol] | – | – | 140.7 Å² | – | – |
| S=c1[nH]c2ccccc2[nH]1 [2-Mercaptobenzimidazole] | 128 Å² | 127.8 Å² | 127.1 Å² | – | collision cross section in nitrogen [5]: 125.7 Å² |
| C1CCC(NC2CCCCC2)CC1 [Dicyclohexylamine] | 147.6 Å² | 146.9 Å² | – | – | – |
| Fc1ccccc1[C@@H](F)CO[C@H]1CC[C@H](Nc2[nH]cnc3nncc2-3)CC1 [MK-968] | 187.8 Å² | 187.7 Å² | 198.9 Å² | 191.4 Å² | – |
